This passage reports solubility results from PubChem BioAssay AID624321 (Sanford-Burnham Center for Chemical Genomics, 2012).

The structures appear in SMILES notation. Values after ≈ are worked out from the molar mass of the structure shown. Active and inactive are the calls of the source. How the calls were made is not given here.

The subject of this data set is aqueous solubility in 1x PBS. In words: aqueous solubility in phosphate-buffered saline, ADME assay, biophysical, set 2 (AID 624321). The settings on record: at 100 µM; stronger effect = higher value.
One may read the solubility as the concentration that dissolves in the medium under given conditions. On to `CCc1oc2ccccc2c1C(=O)c1cc(Br)c(O)c(Br)c1`, for which the solubility is more than 42 µg/mL.
The result for `Cc1ccc(C)c(OCCn2cc(C(=O)O)c3ccccc32)c1` reads 25.1 µg/mL (≈ 81.1 µM).
As to `N#C/C(=C\c1ccc([N+](=O)[O-])o1)c1nc2ccccc2[nH]1`, the solubility is 0.17 µg/mL (inactive) (≈ 0.607 µM).
In the case of `COc1ccc(CNCc2cccc3ccccc23)cc1`, the solubility is 29.6 µg/mL (≈ 107 µM).
Turning to `Cc1cc(C)n(-c2nc(NCCCO)c3c4c(sc3n2)CCCC4)n1`, the solubility is 17.1 µg/mL (≈ 47.8 µM).
On to `CC(C)C(=O)NC(c1ccco1)c1ccc2cccnc2c1O` (centres undefined), for which the solubility is 3.3 µg/mL (inactive) (≈ 10.6 µM).
`Cc1ccc(C(=O)n2c3ccccc3c3ccccc32)cc1`: the solubility is 0.03 µg/mL (inactive) (≈ 0.105 µM).
As for `COc1ccccc1N(/N=C1\Sc2ccccc2C1=O)C(C)=O`, the solubility was 3.7 µg/mL (inactive) (≈ 11.3 µM).
With `O=c1[nH]c2c(s1)C(c1cccnc1)C1C3CCC(C3)C1S2` (centres undefined), the solubility is more than 31 µg/mL.
Regarding `COc1ccc(OC)c(S(=O)(=O)Nc2cnc3ccccc3c2)c1`, the solubility is 25.6 µg/mL (≈ 74.3 µM).
As for `c1ccc2c(Nc3nnc(-c4ccncc4)s3)cccc2c1`, the solubility was 2.7 µg/mL (inactive) (≈ 8.87 µM).
In the case of `Cc1cc(C)nc(-n2nc(C)c(Sc3ccc(F)cc3)c2N)n1` it was 4.8 µg/mL (inactive) (≈ 14.6 µM); in that of `Cc1ccnc(NC(=O)CCCOc2cc(=O)n(C)c3ccccc23)c1`, 8.3 µg/mL (inactive) (≈ 23.6 µM).
On to `Oc1cc(O)cc(/C=C/c2ccc(O)c(O)c2)c1`, for which the solubility was 6.5 µg/mL (inactive) (≈ 26.6 µM).
Regarding `CN1CSC(=S)N(C)C1`, the solubility was more than 16 µg/mL.
`CC(C)(C)OC(=O)NCCc1nnc(S(=O)(=O)Cc2ccc(Cl)cc2Cl)o1`: the solubility is 5.8 µg/mL (inactive) (≈ 13.3 µM).
Consider `c1ccc(-c2nnc(N3CCOCC3)nc2-c2ccccc2)cc1`, for which the solubility was 2.1 µg/mL (inactive) (≈ 6.6 µM).
The result for `COc1ccc(Sc2ccc(NC(=O)c3ccccc3Cl)cc2C#N)cc1` reads < 0.01 µg/mL (inactive).
On to `CN(C)c1nc(N)nc(CSc2nnnn2-c2cccc3ccccc23)n1`, for which the solubility was 0.65 µg/mL (inactive) (≈ 1.71 µM).
For `COc1ccc(C2CC(c3ccccc3)=NN2c2ccc(S(N)(=O)=O)cc2)cc1` (centres undefined), the solubility is 0.02 µg/mL (inactive) (≈ 0.0491 µM).
As to `COc1nc(-c2ccccc2)nnc1-c1ccccc1`, the solubility is 0.18 µg/mL (inactive) (≈ 0.684 µM).
On to `c1ccc(CC2CCN(c3ncnc4sccc34)CC2)cc1`, for which the solubility is 0.03 µg/mL (inactive) (≈ 0.0969 µM).
Regarding `O=C(O)c1ccc(N2C(=O)/C(=C/c3ccc(-c4ccc([N+](=O)[O-])cc4)o3)C=C2c2ccccc2)cc1`, the solubility is 0.92 µg/mL (inactive) (≈ 1.92 µM).
As for `Cc1ccc(C)c(NS(=O)(=O)c2cc(C(=O)Nc3ccccc3-c3ccccc3)ccc2Cl)c1`, the solubility was 0.43 µg/mL (inactive) (≈ 0.876 µM).
The result for `N#Cc1ccccc1CSc1nc2ncc(Br)cc2[nH]1` reads 0.42 µg/mL (inactive) (≈ 1.22 µM); that for `Cc1nc(SCc2nc3ccccc3[nH]2)c2oc3ccccc3c2n1`, 0.15 µg/mL (inactive) (≈ 0.433 µM).
On to `COc1ccc(S(=O)(=O)N2CCN(S(=O)(=O)c3ccc4c(c3)OCCO4)CC2)cc1`, for which the solubility is 0.26 µg/mL (inactive) (≈ 0.572 µM).
Consider `COc1cccc(-c2nc(-c3ccc(NC(=O)Cc4ccccc4OC)cc3)no2)c1`, for which the solubility is 0.04 µg/mL (inactive) (≈ 0.0963 µM).
In the case of `Cc1cc(C(=O)CN2C(=O)CCC2=O)c(C)n1Cc1ccccc1` it was 17.8 µg/mL (≈ 54.9 µM); in that of `O=C1C2CC=CCC2C(=O)N1c1n[nH]c(-c2ccccc2)n1` (centres undefined), more than 29 µg/mL; in that of `O=c1oc2c(O)c(O)cc3c(=O)oc4c(O)c(O)cc1c4c23`, more than 30 µg/mL.
Regarding `CCCc1nc2c(=O)n(C)c(=O)nc-2n(C)n1`, the solubility is more than 23 µg/mL.
In the case of `Cc1cc2c(s1)c1cnn(Cc3ccccc3F)c(=O)c1n2C` it was 0.08 µg/mL (inactive) (≈ 0.244 µM); in that of `O=C(O)c1cccnc1SCCc1ccccc1`, more than 26 µg/mL.
The result for `COc1ccc(S(=O)(=O)n2nc(OC(=O)c3ccccc3)cc2N)cc1` reads 1.1 µg/mL (inactive) (≈ 2.95 µM); that for `CCc1nnc(NC(=O)c2ccc(NS(=O)(=O)c3ccccc3)cc2)s1`, 1.3 µg/mL (inactive) (≈ 3.35 µM); that for `O=C(c1ccccn1)N(Cc1cccs1)C1(C(=O)NC2CCCCC2)CCCCC1`, 7.3 µg/mL (inactive) (≈ 17.2 µM).
With `CCOc1ccc(NC(=S)N2CCC(C(O)(c3ccccc3)c3ccccc3)CC2)cc1`, the solubility is 0.92 µg/mL (inactive) (≈ 2.06 µM).
For the compound `O=[N+]([O-])c1ccc(CN2CCOCCOCCN(Cc3ccc([N+](=O)[O-])cc3)CCOCC2)cc1`, the solubility is 21.7 µg/mL (≈ 44.4 µM).
For `CCOc1ccc(-c2nc(-c3ccncc3)no2)cc1OCC`, the solubility was 0.77 µg/mL (inactive) (≈ 2.47 µM).
Take `Cc1ccc(S(=O)(=O)C(c2ccccc2)c2c(C)noc2C)cc1` (centres undefined): the solubility is 17.9 µg/mL (≈ 52.4 µM).
Regarding `O=C(O)CCC(NS(=O)(=O)c1ccc(-c2ccccc2)cc1)C(=O)O` (centres undefined), the solubility was more than 36 µg/mL.
Turning to `O=C(O)c1ccccc1OCc1ccccc1Br`, the solubility is more than 30 µg/mL.
In the case of `CCCn1ncc(CN2CCCC(C(=O)c3cccc(OC(C)C)c3)C2)c1C` (centres undefined) it was 29.6 µg/mL (≈ 77.2 µM); in that of `CCN1CCN(c2nc3ccccc3nc2C(C#N)C(=O)OC2CCCCC2)CC1` (centres undefined), 24.3 µg/mL (≈ 59.6 µM).
As for `CS(=O)(=O)c1ccc(C(=O)OCC(=O)NC23CC4CC(CC(C4)C2)C3)cc1[N+](=O)[O-]`, the solubility was 4.8 µg/mL (inactive) (≈ 11 µM).
The result for `O=c1c2ccccc2[se]n1-c1ccccc1` reads 7.2 µg/mL (inactive) (≈ 26.3 µM).
`C=CCn1c(SCC(=O)c2ccc(O)c(O)c2)nnc1-c1ccccc1OC`: the solubility is 26 µg/mL (≈ 65.4 µM).
For the compound `O=C(COc1ccccc1Br)NCCc1nc2ccccc2[nH]1`, the solubility was 29.4 µg/mL (≈ 78.6 µM).
In the case of `CCCN(CCC)CCNC(=O)C1CCN(Cc2nc(-c3ccc(Cl)cc3)oc2C)CC1` it was more than 46 µg/mL; in that of `COc1cc(NC(=O)c2cc(C3CC3)on2)c(OC)cc1Cl`, < 0.01 µg/mL (inactive); in that of `Cc1ccccc1N1CCN(c2ncnc3c2cnn3Cc2ccc(Cl)cc2)CC1`, 0.01 µg/mL (inactive) (≈ 0.0239 µM).
With `O=c1[nH]c(SCc2ccc(Cl)cc2)nc2c1CCC2`, the solubility was 0.62 µg/mL (inactive) (≈ 2.12 µM).
As to `C/C=C/Cn1c(SCCCc2ccccc2)nc2c1c(=O)[nH]c(=O)n2C`, the solubility was 0.19 µg/mL (inactive) (≈ 0.513 µM).
`Cc1ccc(NC(=O)CCC(=O)N/N=C/c2ccc([N+](=O)[O-])o2)cc1C`: the solubility is 0.43 µg/mL (inactive) (≈ 1.2 µM).
Consider `COC(=O)c1ccccc1NC(=O)c1ccc(F)cc1`, for which the solubility is 0.94 µg/mL (inactive) (≈ 3.44 µM).
As for `O=S(=O)(NC1CCCCC1N1CCOCC1)c1ccc(Cl)cc1` (centres undefined), the solubility is more than 36 µg/mL.
For the compound `O=C1NCCCc2c1oc1ccc(O)cc21`, the solubility is 16.8 µg/mL (≈ 77.3 µM).
As to `O=C(CCNS(=O)(=O)c1cccc2nsnc12)N1CCN(c2ccccn2)CC1`, the solubility was more than 43 µg/mL.
With `O=C1CCCC2=C1C1(CCCC1)N=C(Nc1nc3ccccc3o1)N2`, the solubility is 0.13 µg/mL (inactive) (≈ 0.386 µM).
Turning to `Cc1cc(-c2nnc3n2CCCCC3)c(C)n1-c1ccccc1`, the solubility was more than 30 µg/mL.
For `O=C(CSc1cccc2cccnc12)N1CCCC1`, the solubility is more than 27 µg/mL.
As to `O=S1(=O)Nc2c(ccc3cccnc23)-c2ccccc21`, the solubility is more than 28 µg/mL.
`CCCC(=O)Nc1cccc(NC(=O)c2ccccc2Br)c1`: the solubility is more than 36 µg/mL.
On to `Cc1ccc(-n2c(N)c(C#N)c(-c3ccccc3)c(C#N)c2=O)cc1`, for which the solubility is 0.83 µg/mL (inactive) (≈ 2.54 µM).
The result for `Cn1nnnc1Sc1ncnc2scc(-c3ccccc3)c12` reads 2.4 µg/mL (inactive) (≈ 7.35 µM); that for `CC1CCCN(C(C(=O)Nc2ccc3c(c2)OCCO3)c2ccccc2)C1` (centres undefined), 5.2 µg/mL (inactive) (≈ 14.2 µM).
On to `COc1ccc(CSc2nc(C)cc(=O)[nH]2)cc1`, for which the solubility was more than 26 µg/mL.
Take `Cc1ccc(S(=O)(=O)n2c(N)nc3ccccc32)cc1`: the solubility was 1.8 µg/mL (inactive) (≈ 6.26 µM).
Take `O=C(COC(=O)C12CC3CC(CC(C3)C1)C2)NCc1ccco1`: the solubility is < 0.01 µg/mL (inactive).
In the case of `CC(=O)c1ccc(N2CCN(S(=O)(=O)c3ccc4c(c3)CC(=O)N4)CC2)cc1`, the solubility is 3 µg/mL (inactive) (≈ 7.51 µM).
Take `CN(C)C1=C(Cl)C(=O)N(c2ccc(Cl)c(Cl)c2)C1=O`: the solubility is < 0.01 µg/mL (inactive).
Regarding `Cn1cnc([N+](=O)[O-])c1Sc1ncnc2nc[nH]c12`, the solubility is more than 27 µg/mL.
Take `Cc1ccc(N2CCN(S(=O)(=O)N3CCCCC3)CC2)c(C)c1`: the solubility was 1.4 µg/mL (inactive) (≈ 4.15 µM).
For the compound `CC[C@H]1CN2CCc3cc(OC)c(OC)cc3[C@@H]2C[C@@H]1C[C@H]1NCCc2cc(OC)c(OC)cc21`, the solubility was more than 55 µg/mL.
The result for `COc1ccc(OC)c(-c2nnc3n2N=C(c2ccc(OC)c(OC)c2)CS3)c1` reads 26.8 µg/mL (≈ 65 µM); that for `CN(C)c1oc(-c2ccc(OCc3ccc(Cl)cc3)cc2)nc1C#N`, 0.03 µg/mL (inactive) (≈ 0.0848 µM); that for `Cc1ccc(S(=O)(=O)NCc2ccc(C(=O)NCCN(Cc3ccccc3)C(C)C)cc2)cc1`, 18.6 µg/mL (≈ 38.8 µM).
As for `CCCc1cc(C(=O)N(C2CCCCC2)C2CCCCC2)no1`, the solubility was 1.5 µg/mL (inactive) (≈ 4.71 µM).
In the case of `COc1ccc(N(C(=O)CCl)C(C(=O)NCCc2ccccc2)c2cccs2)cc1Cl` (centres undefined), the solubility was 0.51 µg/mL (inactive) (≈ 1.07 µM).
`Cc1cccc(-n2cnc3cc(C(=O)N4CCCCC4)ccc32)c1`: the solubility is 26.3 µg/mL (≈ 82.3 µM).
For `COc1ccc(C2c3c(ncn(CCN4CCOCC4)c3=N)Oc3ccc4ccccc4c32)cc1OC` (centres undefined), the solubility was 35.4 µg/mL (≈ 71 µM).
The result for `CCCOc1ccc(-c2nc(OC)c3ccccc3n2)cc1` reads < 0.01 µg/mL (inactive); that for `CSc1nc(-c2ccc(C)cc2)nc(C(Cl)Cl)n1`, 0.07 µg/mL (inactive) (≈ 0.233 µM); that for `CCOC(=O)C(C)Oc1cccc2c(=O)n(CC(=O)Nc3ccc4c(c3)OCCO4)ccc12` (centres undefined), 0.35 µg/mL (inactive) (≈ 0.774 µM).
Take `CCCN1CNc2c(c(=O)[nH]c(=S)n2CCc2ccc(OC)c(OC)c2)C1`: the solubility is more than 39 µg/mL.
On to `Cc1ccc(NS(=O)(=O)c2ccc3c(c2)CCC(=O)N3)cc1C`, for which the solubility is 24.4 µg/mL (≈ 73.8 µM).
On to `Brc1ccc2c(c1)CN1CCCC1=N2`, for which the solubility is more than 25 µg/mL.
As to `NC(=O)C1CCN(c2nc(-c3ccc(Br)cc3)cs2)CC1`, the solubility is 0.14 µg/mL (inactive) (≈ 0.382 µM).
